15 molecules from ChEMBL document CHEMBL5634169 (Bioorg Med Chem Lett, 2024) can be followed below.

Each structure is given as a SMILES string.

Series [1] can be described thus: Cytotoxicity against human A549 cells by SRB assay. The series is classed as toxicity, cell-based.
A short description of series [2]: Inhibition of Influenza A virus H5N1 neuraminidase.

In turn, `C/C(=N\NC(=O)c1ccc(F)cc1)c1ccc(NC(=O)Cc2cccs2)cc1` displayed a CC50 in series [1] of 55.3 µM. For the same molecule, the IC50 in series [2] was 23600 nM.
In the case of `C/C(=N\NC(=O)c1ccc(C(C)(C)C)cc1)c1ccc(NC(=O)c2ccco2)cc1`, the IC50 in series [2] worked out at 28600 nM.
Same read-out and setting: the same measure for `C/C(=N\NC(=O)c1ccc([N+](=O)[O-])cc1)c1ccc(NC(=O)c2ccco2)cc1`: 1530 nM.
`C/C(=N\NC(=O)c1ccc(O)cc1)c1ccc(NC(=O)Cc2cccs2)cc1` displayed an IC50 in series [2] of 650 nM.
Still for that read-out and setting: the same measure for `C/C(=N\NC(=O)c1ccc(O)cc1)c1ccc(NC(=O)c2ccco2)cc1`: 200 nM; for `C/C(=N\NC(=O)c1ccc(C(C)(C)C)cc1)c1ccc(NC(=O)Cc2cccs2)cc1`: 940 nM.
On the same count and under the same terms, for `COc1ccc(C(=O)N/N=C(\C)c2ccc(NC(=O)c3ccco3)cc2)cc1` the value was 32000 nM.
In series [2], `C/C(=N\NC(=O)Cc1cccc2ccccc12)c1ccc(NC(=O)c2ccco2)cc1` yielded an IC50 of 46800 nM.
On the same count and under the same terms, for `C/C(=N\NC(=O)c1ccc([N+](=O)[O-])cc1)c1ccc(NC(=O)Cc2cccs2)cc1` the value was 6100 nM.
`CCC(CC)O[C@@H]1C=C(C(=O)O)C[C@H](N)[C@H]1NC(C)=O` [OSELTAMIVIR CARBOXYLATE] showed a CC50 in series [1] of 61.2 µM. In series [2], the IC50 was 310 nM.
For `C/C(=N\NC(=O)c1ccc(Cl)cc1)c1ccc(NC(=O)Cc2cccs2)cc1`, the IC50 in series [2] is 310 nM.
`COc1ccc(C(=O)N/N=C(\C)c2ccc(NC(=O)Cc3cccs3)cc2)cc1` came in with a CC50 in series [1] of 37.6 µM. This molecule showed an IC50 in series [2] of 130 nM.
The molecule `C/C(=N\NC(=O)c1ccc(F)cc1)c1ccc(NC(=O)c2ccco2)cc1` had an IC50 in series [2] of 19400 nM.
Turning to `C/C(=N\NC(=O)Cc1cccc2ccccc12)c1ccc(NC(=O)Cc2cccs2)cc1`, the concentration for half-maximal inhibition (IC50) in series [2] was 2780 nM.
For `C/C(=N\NC(=O)c1ccc(Cl)cc1)c1ccc(NC(=O)c2ccco2)cc1`, the IC50 in series [2] amounted to 21300 nM.
